In BindingDB's records for patent US10143681 (Merck Sharp & Dohme, 2018):

Target: Plasma kallikrein (Homo sapiens, UniProt P03952)
Experiment: Kallikrein Assay
Procedure: The effectiveness of a compound of the present invention as an inhibitor of Kallikrein can be determined using a relevant purified serine protease, and an appropriate synthetic substrate. The rate of hydrolysis of the chromogenic or fluorogenic substrate by the relevant serine protease was measured both in the absence and presence of compounds of the present invention. Assays were conducted at room temperature or at 37° C. […] A decrease in the rate of fluorescence change in the presence of inhibitor is indicative of enzyme inhibition. Such methods are known to one skilled in the art. […] Times required to achieve equilibration between enzyme and inhibitor were determined in control experiments. […] IC50 was determined by inflection point from a four parameter logistic curve fit. Ki was calculated using the Cheng Prusoff equation, Ki=IC50/(1+([S]/Km)).

Chain of Plasma kallikrein (P03952 20-390 limits assumed): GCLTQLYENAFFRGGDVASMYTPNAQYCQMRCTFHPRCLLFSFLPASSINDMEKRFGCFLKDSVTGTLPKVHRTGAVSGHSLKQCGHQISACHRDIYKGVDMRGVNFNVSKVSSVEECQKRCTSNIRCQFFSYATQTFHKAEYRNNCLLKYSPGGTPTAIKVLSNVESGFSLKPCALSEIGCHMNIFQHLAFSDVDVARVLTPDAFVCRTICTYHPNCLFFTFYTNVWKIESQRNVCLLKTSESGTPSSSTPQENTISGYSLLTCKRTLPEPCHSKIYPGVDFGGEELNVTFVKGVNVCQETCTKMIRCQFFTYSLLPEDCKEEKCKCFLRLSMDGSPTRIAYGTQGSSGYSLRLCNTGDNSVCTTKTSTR
Chain of Plasma kallikrein (P03952 391-638 limits assumed): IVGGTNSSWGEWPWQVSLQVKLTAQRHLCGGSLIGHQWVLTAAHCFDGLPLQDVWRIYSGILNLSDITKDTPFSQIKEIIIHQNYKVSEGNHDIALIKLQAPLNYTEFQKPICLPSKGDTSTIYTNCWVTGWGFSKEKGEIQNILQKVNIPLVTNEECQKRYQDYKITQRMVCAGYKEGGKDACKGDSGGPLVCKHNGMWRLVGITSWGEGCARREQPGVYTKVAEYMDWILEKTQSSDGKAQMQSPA

COc1cc([C@@H](CC2CC2)C(=O)Nc2ccc(C(=O)O)cc2)[n+]([O-])cc1-c1c(C(F)F)ccc(Cl)c1F [US10143681, Example 69]
IC50: 0.042 µM
